Measured values from patent publication US20260297042A1, “BIARYLAMIDE DERIVATIVES AND THEIR USE AS PKMYT1 INHIBITORS” (CANCER RESEARCH TECHNOLOGY LIMITED, priority 2023, published 2026).

Legend:
KYSE-30 cells = assay: Cancer cell line proliferation assay, ATP-based cell viability (Cell Titre Glow), KYSE-30 (normal CCNE1); settings: Homo sapiens, KYSE-30 cells (normal CCNE1), concentration that achieves 50% cell growth proliferation inhibition, read-out: KYSE30 Gl50
In short: (§1)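 GI50 reflects half-maximal growth inhibition by PKMYT1 inhibitors, derived by curve fitting of CellTiter-Glo luminescence signals.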

Human PKMYT1 = biological target: T1, Human PKMYT1 (Homo sapiens, UniProt Q99640); assay: PKMYT1 biochemical ADP-Glo enzymatic assay; settings: ADP-Glo
T1 construct: Human PKMYT1 75-362 was cloned as a TEV cleavable 6xHis fusion; 6xHis (TEV cleavable) (cleaved yes); made in house; host or cells: bacterial cells
T1 sequence (Q99640 75-362): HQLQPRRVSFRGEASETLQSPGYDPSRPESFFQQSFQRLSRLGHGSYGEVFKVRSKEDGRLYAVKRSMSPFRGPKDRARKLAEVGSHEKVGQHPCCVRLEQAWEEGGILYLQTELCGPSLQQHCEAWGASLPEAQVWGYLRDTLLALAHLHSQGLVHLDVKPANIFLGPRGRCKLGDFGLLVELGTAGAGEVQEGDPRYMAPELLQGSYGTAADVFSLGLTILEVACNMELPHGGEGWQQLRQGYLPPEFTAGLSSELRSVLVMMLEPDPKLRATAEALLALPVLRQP
In short: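 Luminescent ADP-Glo Max read-out of ADP produced by 15 nM PKMYT1 (residues 75-362, bacterial, His-tag removed) from 500 µM ATP without peptide substrate. Reaction: 50 mM HEPES pH 7.5, 10 mM MgCl2, 1 mM EGTA, 0.01% Brij-35, 60 min, 26 °C. IC50 values fitted from 10-point curves.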

OVCAR 3 cells = assay: Cancer cell line proliferation assay, ATP-based cell viability (Cell Titre Glow), OVCAR 3 (CCNE1-amplified); settings: KYSE30 (normal CCNE1) GI50 vs. OVCAR 3 (CCNE1-amplified) GI50
In short: as §1

[1] = biological target: T2, Cellular PKMYT1 Biomarker CDK1 pT14 (Homo sapiens, UniProt Q99640); assay: Inhibition of cellular PKMYT1 biomarker CDK1 pT14 in OVCAR 3 cells (immunoblot); format: cell-based; settings: 20 hours incubation
T2 construct: read-out CDK1 phospho-T14 immunoblot
T2 sequence (Q99640 1-499): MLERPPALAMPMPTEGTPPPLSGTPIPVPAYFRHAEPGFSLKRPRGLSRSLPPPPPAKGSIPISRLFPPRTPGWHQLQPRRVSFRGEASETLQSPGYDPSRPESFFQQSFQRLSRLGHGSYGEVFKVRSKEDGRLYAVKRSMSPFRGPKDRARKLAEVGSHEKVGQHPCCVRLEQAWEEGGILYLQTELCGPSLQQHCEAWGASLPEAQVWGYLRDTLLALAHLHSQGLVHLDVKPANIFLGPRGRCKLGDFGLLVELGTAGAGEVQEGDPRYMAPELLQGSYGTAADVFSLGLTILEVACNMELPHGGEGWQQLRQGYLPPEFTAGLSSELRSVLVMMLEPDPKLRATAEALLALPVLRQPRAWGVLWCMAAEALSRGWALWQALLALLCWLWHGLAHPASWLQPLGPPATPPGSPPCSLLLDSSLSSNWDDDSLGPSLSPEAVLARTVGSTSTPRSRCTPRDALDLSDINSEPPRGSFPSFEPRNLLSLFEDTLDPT
In short: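 Confluent OVCAR 3 cells treated with a compound concentration range for 20 h at 37 °C. Lysates analysed by automated capillary immunoblot for CDK1 phospho-T14, with vinculin, fluorescence detection; IC50 by regression.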

WEE1 = biological target: T3, WEE1 (Homo sapiens, UniProt P30291); assay: Selectivity versus WEE1 assay (ADP-Glo enzymatic assay); format: biochemical; settings: for IC50: ADP-Glo; for PKMYT1 vs. WEE1 selectivity: fold difference in selectivity for PKMYT1 over WEE1
T3 construct: purchased Thermo Fisher PR7373A
In short: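 ADP-Glo luminescence read-out after a 60 min reaction at 26° C, initiated by 30 µM ATP, with 15 nM enzyme in HEPES pH 7.5/MgCl2/EGTA/Brij-35 buffer containing 1% DMSO. Replicate IC50 values had to agree within 3-fold and fits needed r2 >0.9.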

[2] = PKMYT1 kinase domain 15 nM, banded values
[3] = 15 nM PKMYT1 kinase domain, 500 µM ATP, 60 minutes at 26° C., banded
[4] = 15 nM WEE1, 60 minutes at 26° C., banded
[5] = banded, ">N" = at least in this band but could be higher

T3 sequence (P30291 whole entry): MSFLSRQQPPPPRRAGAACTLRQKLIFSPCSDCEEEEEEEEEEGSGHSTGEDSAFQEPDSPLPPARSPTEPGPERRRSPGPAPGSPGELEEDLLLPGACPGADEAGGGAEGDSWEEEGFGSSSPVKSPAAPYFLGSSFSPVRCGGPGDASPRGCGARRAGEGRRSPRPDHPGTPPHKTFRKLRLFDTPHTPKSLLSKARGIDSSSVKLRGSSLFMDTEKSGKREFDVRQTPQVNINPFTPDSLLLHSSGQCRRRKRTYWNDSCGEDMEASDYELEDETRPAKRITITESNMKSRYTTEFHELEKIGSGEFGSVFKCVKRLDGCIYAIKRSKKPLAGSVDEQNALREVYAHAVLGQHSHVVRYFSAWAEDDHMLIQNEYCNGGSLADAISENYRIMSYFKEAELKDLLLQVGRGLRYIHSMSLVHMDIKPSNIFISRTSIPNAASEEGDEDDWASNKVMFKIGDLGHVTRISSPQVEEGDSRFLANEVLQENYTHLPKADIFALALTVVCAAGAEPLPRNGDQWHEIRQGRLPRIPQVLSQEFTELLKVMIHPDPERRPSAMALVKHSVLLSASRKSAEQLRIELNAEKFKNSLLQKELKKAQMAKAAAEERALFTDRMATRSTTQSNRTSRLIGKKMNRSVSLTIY

SMILES | GI50 (KYSE-30 cells) [µM] | IC50 (Human PKMYT1; [2]) [nM] | Selectivity ratio KYSE30 Gl50 vs. OVCAR3 Gl50 (OVCAR 3 cells) | IC50 [1] [nM] | IC50 (WEE1; WEE1 15 nM, banded values) [µM] | PKMYT1 vs. WEE1 selectivity (WEE1; banded) | IC50 (Human PKMYT1; [3]) [nM] | IC50 (WEE1; [4]) [µM] | PKMYT1 vs. WEE1 selectivity (WEE1; [5])
Cc1cn(-c2ccn(C)n2)nc1Nc1ncc(C(=O)Nc2c(C)ccc(O)c2C)s1 [BAA-398, 2-((1′,4-dimethyl-1′H-[1,3′-bipyrazol]-3-yl)amino)-N-(3-hydroxy-2,6-dimethylphenyl)thiazole-5-carboxamide] | 0.5 to 5 | < 50 | Y (>20 fold) | < 100 | 1 to 11 | X (100-<1000 fold) |  |  | 
Cc1ccc(O)c(C)c1NC(=O)c1cnc(Nc2cc(N3CCOCC3)ncn2)s1 [BAA-571, N-(3-hydroxy-2,6-dimethylphenyl)-2-((6-morpholinopyrimidin-4-yl)amino)thiazole-5-carboxamide] | 0.5 to 5 | < 50 | Y (>20 fold) | < 100 | 0.05 to 1 | W (10-<100 fold) |  |  | 
COCC1(N(C)C(=O)Cn2cc(C)c(Nc3ncc(C(=O)Nc4c(C)ccc(O)c4C)s3)n2)CC1 [BAA-607] | > 5 | < 50 | Y (>20 fold) | < 100 | 1 to 11 | X (100-<1000 fold) |  |  | 
Cc1ccc(O)c(C)c1NC(=O)c1cnc(Nc2ccc(N3CCC(F)(F)CC3)cn2)s1 [BAA-308, 2-((5-(4,4-difluoropiperidin-1-yl)pyridin-2-yl)amino)-N-(3-hydroxy-2,6-dimethylphenyl)thiazole-5-carboxamide] | 0.5 to 5 |  | X (3-20 fold) | < 100 |  |  | 50 to 1000 | > 11 | X (100-<1000 fold)
Cc1cn(CC(=O)N2CCCC2c2ccccc2)nc1Nc1ncc(C(=O)Nc2c(C)ccc(O)c2C)s1 (stereo not drawn) [BAA-600, N-(3-hydroxy-2,6-dimethylphenyl)-2-((4-methyl-1-(2-oxo-2-(2-phenylpyrrolidin-1-yl)ethyl)-1H-pyrazol-3-yl)amino)thiazole-5-carboxamide] | 0.5 to 5 | < 50 | Y (>20 fold) | < 100 | 1 to 11 | X (100-<1000 fold) |  |  | 
Cc1cccc(Nc2ncc(C(=O)Nc3c(C)ccc(O)c3C)s2)n1 [BAA-407, N-(3-hydroxy-2,6-dimethylphenyl)-2-((6-methylpyridin-2-yl)amino)thiazole-5-carboxamide] | > 5 | < 50 | Y (>20 fold) | < 100 | 1 to 11 | X (100-<1000 fold) |  |  | 
Cc1cn(C2CCC2)nc1Nc1ncc(C(=O)Nc2c(C)ccc(O)c2C)s1 [BAA-270, 2-((1-cyclobutyl-4-methyl-1H-pyrazol-3-yl)amino)-N-(3-hydroxy-2,6-dimethylphenyl)thiazole-5-carboxamide] | < 0.5 |  | Y (>20 fold) | < 100 |  |  | < 50 | 1 to 11 | X (100-<1000 fold)
Cc1cnccc1-n1cc(C)c(Nc2ncc(C(=O)Nc3c(C)ccc(O)c3C)s2)n1 [BAA-384, N-(3-hydroxy-2,6-dimethylphenyl)-2-((4-methyl-1-(3-methylpyridin-4-yl)-1H-pyrazol-3-yl)amino)thiazole-5-carboxamide] | 0.5 to 5 |  | Y (>20 fold) | < 100 |  |  | < 50 | 1 to 11 | X (100-<1000 fold)
COc1ccc(F)c(Nc2ncc(C(=O)Nc3c(C)ccc(O)c3C)s2)n1 [BAA-425, 2-((3-fluoro-6-methoxypyridin-2-yl)amino)-N-(3-hydroxy-2,6-dimethylphenyl)thiazole-5-carboxamide] | 0.5 to 5 | < 50 | Y (>20 fold) | < 100 | > 11 | Y (1000-5000 fold) |  |  | 
Cc1cn(CC(=O)N2CCCC2C(F)(F)F)nc1Nc1ncc(C(=O)Nc2c(C)ccc(O)c2C)s1 (stereo not drawn) [BAA-493, N-(3-hydroxy-2,6-dimethylphenyl)-2-((4-methyl-1-(2-oxo-2-(2-(trifluoromethyl)pyrrolidin-1-yl)ethyl)-1H-pyrazol-3-yl)amino)thiazole-5-carboxamide] | > 5 | < 50 | Y (>20 fold) | < 100 | 1 to 11 | X (100-<1000 fold) |  |  | 
Cc1ccc(O)c(C)c1NC(=O)c1cnc(Nc2nc(NC(=O)C(C)(C)C)ccc2Cl)s1.Cl [BAA-333, 2-((3-chloro-6-pivalamidopyridin-2-yl)amino)-N-(3-hydroxy-2,6-dimethylphenyl)thiazole-5-carboxamide hydrochloride] | > 5 |  | Y (>20 fold) | < 100 |  |  | 50 to 1000 | > 11 | Y (1000-5000 fold)
Cc1ccc(O)c(C)c1NC(=O)c1cnc(Nc2ccc3ccncc3n2)s1 [BAA-597, 2-((1,7-naphthyridin-2-yl)amino)-N-(3-hydroxy-2,6-dimethylphenyl)thiazole-5-carboxamide] | 0.5 to 5 | < 50 | Y (>20 fold) | 100 to 1000 | > 11 | X (100-<1000 fold) |  |  | 
CCN(CCOC)C(=O)Cn1cc(C)c(Nc2ncc(C(=O)Nc3c(C)ccc(O)c3C)s2)n1 [BAA-550, 2-((1-(2-(ethyl(2-methoxyethyl)amino)-2-oxoethyl)-4-methyl-1H-pyrazol-3-yl)amino)-N-(3-hydroxy-2,6-dimethylphenyl)thiazole-5-carboxamide] | > 5 | < 50 | Y (>20 fold) | < 100 | 1 to 11 | X (100-<1000 fold) |  |  | 
